What all share (experiment): scanMAX kinase panel
Holding throughout (type): binding
Holding throughout (settings): read-out: % Control; for remaining binding at 1 µM: 1000 nM

One test concerns the target T1, KIT(L576P) (Homo sapiens, UniProt P10721, L576P).
T1 construct: purchased DiscoverX scanMAX
From the text:
(§1) Supplemental Table S2. scanMAXSM Kinome Assay Results. Complete tabulated data of all 468 kinases from the panel, including
(§2) 403 wild-type and 65 mutant isoforms. […] Cmpd 11 and Cmpd 24

The target in another test is T2, MAP3K2 (Homo sapiens, UniProt Q9Y2U5).
T2 construct: purchased DiscoverX scanMAX
T2 sequence (Q9Y2U5 1-619): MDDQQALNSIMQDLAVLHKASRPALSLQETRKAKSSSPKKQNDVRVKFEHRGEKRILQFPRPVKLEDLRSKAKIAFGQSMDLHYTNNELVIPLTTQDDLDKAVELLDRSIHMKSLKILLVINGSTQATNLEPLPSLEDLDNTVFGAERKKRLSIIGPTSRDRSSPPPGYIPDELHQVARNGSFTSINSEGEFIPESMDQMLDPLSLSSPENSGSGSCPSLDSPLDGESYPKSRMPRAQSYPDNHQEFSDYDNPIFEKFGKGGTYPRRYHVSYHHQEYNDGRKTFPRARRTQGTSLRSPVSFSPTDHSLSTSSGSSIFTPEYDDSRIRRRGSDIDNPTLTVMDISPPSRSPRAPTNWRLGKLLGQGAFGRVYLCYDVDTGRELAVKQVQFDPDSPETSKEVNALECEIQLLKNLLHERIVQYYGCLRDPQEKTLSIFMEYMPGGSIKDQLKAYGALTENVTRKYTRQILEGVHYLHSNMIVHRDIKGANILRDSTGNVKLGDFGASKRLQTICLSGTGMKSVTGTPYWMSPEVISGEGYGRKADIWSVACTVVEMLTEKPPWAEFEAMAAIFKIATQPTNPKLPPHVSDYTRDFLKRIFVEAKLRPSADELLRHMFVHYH
From the text: as §1, §2

The target of the next test is T3, VRK2 (Homo sapiens, UniProt Q86Y07).
T3 construct: purchased DiscoverX (scanMAX panel)
T3 sequence (Q86Y07 whole entry): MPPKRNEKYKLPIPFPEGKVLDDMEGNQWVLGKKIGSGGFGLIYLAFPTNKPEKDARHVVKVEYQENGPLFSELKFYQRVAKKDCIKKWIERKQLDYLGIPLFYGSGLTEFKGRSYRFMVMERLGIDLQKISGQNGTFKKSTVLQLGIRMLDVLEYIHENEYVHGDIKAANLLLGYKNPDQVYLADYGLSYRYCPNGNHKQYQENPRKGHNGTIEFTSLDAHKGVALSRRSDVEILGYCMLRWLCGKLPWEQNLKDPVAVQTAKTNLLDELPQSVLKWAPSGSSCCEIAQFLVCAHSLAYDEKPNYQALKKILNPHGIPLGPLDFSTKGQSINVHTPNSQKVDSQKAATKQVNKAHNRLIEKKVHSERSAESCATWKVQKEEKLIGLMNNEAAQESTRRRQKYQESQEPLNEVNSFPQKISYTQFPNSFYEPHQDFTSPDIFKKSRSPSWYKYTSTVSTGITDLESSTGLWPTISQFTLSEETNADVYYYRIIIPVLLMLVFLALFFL
From the text: as §1, §2

The target in another test is T4, EPHB6 (Homo sapiens, UniProt O15197).
T4 construct: purchased DiscoverX scanMAX
T4 sequence (O15197 32-1021): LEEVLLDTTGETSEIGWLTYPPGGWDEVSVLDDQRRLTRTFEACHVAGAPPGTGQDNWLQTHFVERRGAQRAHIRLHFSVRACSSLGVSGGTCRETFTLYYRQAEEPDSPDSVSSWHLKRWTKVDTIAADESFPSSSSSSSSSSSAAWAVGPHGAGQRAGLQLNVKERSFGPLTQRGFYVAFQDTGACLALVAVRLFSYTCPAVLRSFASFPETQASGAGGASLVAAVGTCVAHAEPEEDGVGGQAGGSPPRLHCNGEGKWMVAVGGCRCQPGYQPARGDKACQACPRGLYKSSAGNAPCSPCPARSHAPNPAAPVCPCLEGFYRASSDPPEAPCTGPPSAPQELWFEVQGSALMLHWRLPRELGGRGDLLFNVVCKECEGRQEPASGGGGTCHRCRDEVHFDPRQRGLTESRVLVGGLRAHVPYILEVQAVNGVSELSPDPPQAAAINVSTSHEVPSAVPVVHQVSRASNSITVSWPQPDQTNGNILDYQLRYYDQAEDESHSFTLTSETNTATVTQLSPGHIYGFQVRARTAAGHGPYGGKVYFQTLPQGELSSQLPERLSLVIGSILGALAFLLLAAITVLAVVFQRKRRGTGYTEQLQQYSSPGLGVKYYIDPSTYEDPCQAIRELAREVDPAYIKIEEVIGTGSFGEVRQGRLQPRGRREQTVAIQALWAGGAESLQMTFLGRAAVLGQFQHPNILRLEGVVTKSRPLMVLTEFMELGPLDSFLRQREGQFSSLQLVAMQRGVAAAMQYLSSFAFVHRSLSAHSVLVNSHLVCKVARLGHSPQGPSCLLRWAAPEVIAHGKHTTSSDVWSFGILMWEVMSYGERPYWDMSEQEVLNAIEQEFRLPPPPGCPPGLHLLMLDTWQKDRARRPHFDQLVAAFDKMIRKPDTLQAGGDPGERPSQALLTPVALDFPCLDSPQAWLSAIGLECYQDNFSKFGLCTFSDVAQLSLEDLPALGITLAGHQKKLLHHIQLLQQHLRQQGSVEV
From the text: as §1, §2

Another test concerns the target T5, CSF1R (Homo sapiens, UniProt P07333).
T5 construct: purchased DiscoverX scanMAX
From the text: as §1, §2

In a further test the target is T6, TRKC (Homo sapiens, UniProt Q16288).
T6 construct: purchased DiscoverX (scanMAX panel)
T6 sequence (Q16288 32-839): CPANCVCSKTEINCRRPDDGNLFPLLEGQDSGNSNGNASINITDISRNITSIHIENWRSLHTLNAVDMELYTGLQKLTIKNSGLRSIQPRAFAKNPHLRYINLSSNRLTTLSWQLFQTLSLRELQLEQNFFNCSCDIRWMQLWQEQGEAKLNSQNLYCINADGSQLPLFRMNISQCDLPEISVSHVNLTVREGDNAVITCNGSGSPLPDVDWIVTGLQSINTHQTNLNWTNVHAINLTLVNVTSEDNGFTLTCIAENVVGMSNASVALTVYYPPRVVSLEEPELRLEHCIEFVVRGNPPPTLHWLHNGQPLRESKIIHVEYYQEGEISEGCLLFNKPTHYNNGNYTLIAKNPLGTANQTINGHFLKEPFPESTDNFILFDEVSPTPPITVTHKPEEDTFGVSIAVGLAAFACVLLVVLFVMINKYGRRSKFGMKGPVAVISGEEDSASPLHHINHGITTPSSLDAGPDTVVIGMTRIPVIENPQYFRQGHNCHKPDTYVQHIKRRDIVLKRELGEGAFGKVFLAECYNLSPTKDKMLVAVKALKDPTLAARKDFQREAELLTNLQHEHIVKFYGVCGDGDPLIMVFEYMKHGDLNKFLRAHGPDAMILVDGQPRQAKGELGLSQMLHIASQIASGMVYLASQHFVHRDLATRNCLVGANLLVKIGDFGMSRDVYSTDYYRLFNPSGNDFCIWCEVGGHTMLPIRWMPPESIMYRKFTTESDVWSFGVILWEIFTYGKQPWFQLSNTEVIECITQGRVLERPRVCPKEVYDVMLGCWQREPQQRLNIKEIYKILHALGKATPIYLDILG
From the text: as §1, §2

The next test addresses T7, MERTK (Homo sapiens, UniProt Q12866).
T7 construct: purchased DiscoverX scanMAX
T7 sequence (Q12866 21-999): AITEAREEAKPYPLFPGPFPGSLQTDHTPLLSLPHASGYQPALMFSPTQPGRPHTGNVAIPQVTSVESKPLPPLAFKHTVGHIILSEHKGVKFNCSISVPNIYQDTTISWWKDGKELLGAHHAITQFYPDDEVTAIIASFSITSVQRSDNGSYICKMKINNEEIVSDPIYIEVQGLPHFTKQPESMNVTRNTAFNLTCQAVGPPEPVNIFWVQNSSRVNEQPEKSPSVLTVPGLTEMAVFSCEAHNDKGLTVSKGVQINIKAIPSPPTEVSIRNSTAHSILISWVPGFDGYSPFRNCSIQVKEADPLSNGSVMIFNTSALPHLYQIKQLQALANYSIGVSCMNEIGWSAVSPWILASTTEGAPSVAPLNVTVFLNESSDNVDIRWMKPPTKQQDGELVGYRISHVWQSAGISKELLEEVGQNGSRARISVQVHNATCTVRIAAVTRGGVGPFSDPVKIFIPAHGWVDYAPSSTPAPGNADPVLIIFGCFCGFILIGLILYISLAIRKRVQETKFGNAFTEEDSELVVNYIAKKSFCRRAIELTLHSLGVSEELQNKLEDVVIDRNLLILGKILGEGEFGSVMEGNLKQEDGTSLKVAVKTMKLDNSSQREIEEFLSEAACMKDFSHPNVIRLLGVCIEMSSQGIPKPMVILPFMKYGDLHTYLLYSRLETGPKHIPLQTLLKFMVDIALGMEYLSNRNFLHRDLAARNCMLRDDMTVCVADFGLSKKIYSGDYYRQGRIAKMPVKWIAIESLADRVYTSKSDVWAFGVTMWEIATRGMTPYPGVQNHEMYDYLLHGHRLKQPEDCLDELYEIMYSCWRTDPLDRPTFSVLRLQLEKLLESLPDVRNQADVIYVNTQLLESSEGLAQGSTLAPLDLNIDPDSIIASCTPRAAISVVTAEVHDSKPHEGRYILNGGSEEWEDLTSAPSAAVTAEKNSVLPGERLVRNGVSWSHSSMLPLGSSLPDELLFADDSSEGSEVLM
From the text: as §1, §2

In a further test the target is T8, YANK2 (Homo sapiens, UniProt Q9NY57).
T8 construct: purchased DiscoverX (scanMAX panel)
T8 sequence (Q9NY57 whole entry): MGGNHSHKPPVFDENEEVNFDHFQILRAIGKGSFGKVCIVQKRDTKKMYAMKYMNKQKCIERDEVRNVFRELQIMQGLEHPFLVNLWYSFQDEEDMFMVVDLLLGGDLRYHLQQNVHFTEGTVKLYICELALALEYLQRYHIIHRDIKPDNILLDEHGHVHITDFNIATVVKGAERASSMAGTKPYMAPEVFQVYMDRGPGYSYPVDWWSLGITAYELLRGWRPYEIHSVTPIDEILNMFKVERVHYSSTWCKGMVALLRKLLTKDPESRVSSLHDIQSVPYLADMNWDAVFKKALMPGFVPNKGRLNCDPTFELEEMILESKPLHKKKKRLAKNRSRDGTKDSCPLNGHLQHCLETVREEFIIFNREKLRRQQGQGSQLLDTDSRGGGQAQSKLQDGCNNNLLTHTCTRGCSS
From the text: as §1, §2

T5 sequence (P07333 20-972): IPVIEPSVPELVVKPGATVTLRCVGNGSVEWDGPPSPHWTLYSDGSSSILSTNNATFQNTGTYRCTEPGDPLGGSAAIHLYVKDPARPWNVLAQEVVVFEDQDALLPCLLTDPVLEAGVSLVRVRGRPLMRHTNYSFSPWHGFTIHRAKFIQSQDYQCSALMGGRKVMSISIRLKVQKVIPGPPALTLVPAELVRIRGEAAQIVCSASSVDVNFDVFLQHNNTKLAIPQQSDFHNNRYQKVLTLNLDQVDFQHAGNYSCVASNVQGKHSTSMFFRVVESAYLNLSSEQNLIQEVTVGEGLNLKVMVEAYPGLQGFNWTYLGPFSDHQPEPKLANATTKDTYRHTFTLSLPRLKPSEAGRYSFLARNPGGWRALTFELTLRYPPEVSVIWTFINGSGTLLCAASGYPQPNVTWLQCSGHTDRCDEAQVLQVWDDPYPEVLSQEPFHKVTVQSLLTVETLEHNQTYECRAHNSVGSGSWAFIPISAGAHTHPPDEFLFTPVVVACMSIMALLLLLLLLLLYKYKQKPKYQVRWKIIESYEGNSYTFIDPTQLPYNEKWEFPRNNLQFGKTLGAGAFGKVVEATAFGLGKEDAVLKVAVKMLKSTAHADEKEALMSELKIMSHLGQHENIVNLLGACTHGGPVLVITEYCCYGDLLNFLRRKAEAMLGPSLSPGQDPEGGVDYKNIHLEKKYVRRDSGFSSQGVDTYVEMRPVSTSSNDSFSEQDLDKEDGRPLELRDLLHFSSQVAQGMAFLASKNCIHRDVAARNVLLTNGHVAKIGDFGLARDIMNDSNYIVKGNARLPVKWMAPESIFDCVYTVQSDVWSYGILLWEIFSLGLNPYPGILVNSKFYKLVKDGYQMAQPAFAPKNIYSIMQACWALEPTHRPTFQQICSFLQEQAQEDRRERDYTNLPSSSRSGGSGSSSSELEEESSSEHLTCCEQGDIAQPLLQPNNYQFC
T1 sequence (P10721 26-976 L576P): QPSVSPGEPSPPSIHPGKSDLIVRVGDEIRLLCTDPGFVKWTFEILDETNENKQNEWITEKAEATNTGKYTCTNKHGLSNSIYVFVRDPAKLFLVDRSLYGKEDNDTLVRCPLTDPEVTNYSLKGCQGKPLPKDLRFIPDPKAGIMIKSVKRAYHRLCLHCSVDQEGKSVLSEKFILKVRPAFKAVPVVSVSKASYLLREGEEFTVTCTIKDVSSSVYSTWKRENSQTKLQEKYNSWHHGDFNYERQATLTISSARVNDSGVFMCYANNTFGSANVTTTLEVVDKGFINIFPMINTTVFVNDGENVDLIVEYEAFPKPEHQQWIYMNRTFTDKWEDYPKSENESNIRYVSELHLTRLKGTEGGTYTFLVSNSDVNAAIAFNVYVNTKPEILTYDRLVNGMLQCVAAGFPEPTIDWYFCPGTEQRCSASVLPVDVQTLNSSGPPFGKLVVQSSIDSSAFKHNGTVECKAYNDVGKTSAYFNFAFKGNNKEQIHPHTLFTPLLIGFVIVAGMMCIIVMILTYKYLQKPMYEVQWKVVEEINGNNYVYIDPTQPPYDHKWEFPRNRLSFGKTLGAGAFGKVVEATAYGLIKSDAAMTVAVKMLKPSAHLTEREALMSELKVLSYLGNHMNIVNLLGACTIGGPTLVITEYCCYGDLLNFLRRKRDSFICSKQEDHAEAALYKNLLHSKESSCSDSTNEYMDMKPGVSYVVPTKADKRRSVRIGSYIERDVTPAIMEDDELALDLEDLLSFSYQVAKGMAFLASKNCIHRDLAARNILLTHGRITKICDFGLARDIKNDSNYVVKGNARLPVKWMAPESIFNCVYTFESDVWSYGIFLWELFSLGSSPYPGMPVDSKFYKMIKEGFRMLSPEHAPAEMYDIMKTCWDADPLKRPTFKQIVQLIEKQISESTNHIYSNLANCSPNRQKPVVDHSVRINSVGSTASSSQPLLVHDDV

For `Cc1cc(NC(=O)[C@H](O)c2cccc(F)c2)ccc1-c1cn(C)c2ncnc(N)c12` [Compound 11, (R)-N-(4-(4-amino-7-methyl-7H-pyrrolo[2,3-d]pyrimidin-5-yl)-3-methylphenyl)-2-(3-fluorophenyl)-2-hydroxy acetamide], the remaining binding at 1 µM is 36% at KIT(L576P); 14% on MAP3K2; 26% on VRK2; 2.6% at EPHB6; 45% on CSF1R; 9.5% at TRKC. Also, the remaining binding at 1 µM is 65% at MERTK and 11% at YANK2.

Turning to `Cc1nc(N)c2c(-c3ccc(NC(=O)[C@H](O)c4cccc(F)c4)cc3C)cn(C)c2n1` [Compound 24], the remaining binding at 1 µM on KIT(L576P) was determined as 98%; at MAP3K2, 100%; on VRK2, 100%; at EPHB6, 100%; on CSF1R, 94%; at TRKC, 79%. The remaining binding at 1 µM at MERTK and on YANK2 was 100% each time.

Take `Cc1nc(N)c2c(-c3ccc(NC(=O)[C@H](O)c4cccc(C(F)(F)F)c4)cc3C)cn(C)c2n1` [Compound 26]: the remaining binding at 0.1 µM worked out at 85% at KIT(L576P) (100 nM); 100% at MAP3K2 (100 nM); 94% at VRK2 (100 nM); 94% at EPHB6 (100 nM); 99% at CSF1R (100 nM); 100% on TRKC (100 nM). For the same molecule, the remaining binding at 0.1 µM on MERTK (100 nM) was determined as 94%; at YANK2 (100 nM), 92%. The remaining binding at 1 µM on KIT(L576P) turned out to be 2.6%; at MAP3K2 it was 89%; on VRK2 it was 78%; on EPHB6 it was 48%; at CSF1R, 15%; at TRKC, 10%. For the same molecule, the remaining binding at 1 µM amounted to 29% at MERTK and 63% on YANK2.
